Calls of active or inactive are those of the source. The rule behind the calls is not given here.
Tested on: CCRIS mutagenicity, Ames/micronucleus/aberration tests
Experiment: CCRIS mutagenicity studies
[1] = Test System: AMES SALMONELLA TYPHIMURIUM, Strain/Indicator: TA100, Metabolic Activation: NONE, Method: STANDARD PLATE

## CC1=Cc2nc3c(ccc4ccccc43)c(C)c2[C@H](O)[C@H]1O
Test System: AMES SALMONELLA TYPHIMURIUM, Strain/Indicator: TA100, Metabolic Activation: RAT, LIVER, S-9, AROCLOR 1254, Method: STANDARD PLATE
  mutagenic call: active; positive

## CC(=O)C=O
Test System: AMES SALMONELLA TYPHIMURIUM, Strain/Indicator: TA98, Metabolic Activation: NONE, Method: PREINCUBATION
  mutagenic call: active; positive
Test System: AMES SALMONELLA TYPHIMURIUM, Strain/Indicator: TA98, Metabolic Activation: RAT, LIVER, S-9, AROCLOR 1254, Method: PREINCUBATION
  mutagenic call: inactive; negative
Test System: AMES SALMONELLA TYPHIMURIUM, Strain/Indicator: TA100, Metabolic Activation: NONE, Method: PREINCUBATION
  mutagenic call: active; positive
[1]
  mutagenic call: active; positive
Test System: AMES SALMONELLA TYPHIMURIUM, Strain/Indicator: TA100, Metabolic Activation: RAT, LIVER, S-9, AROCLOR 1254, Method: PREINCUBATION
  mutagenic call: active; positive
Test System: AMES SALMONELLA TYPHIMURIUM, Strain/Indicator: TA102, Metabolic Activation: NONE, Method: PREINCUBATION
  mutagenic call: active; positive
Test System: AMES SALMONELLA TYPHIMURIUM, Strain/Indicator: TA102, Metabolic Activation: RAT, LIVER, S-9, AROCLOR 1254, Method: PREINCUBATION
  mutagenic call: active; positive
Test System: AMES SALMONELLA TYPHIMURIUM, Strain/Indicator: TA102, Metabolic Activation: RAT, LIVER, S-9, PHENOBARBITAL AND BETA-NAPHTHOFLAVONE, Method: PREINCUBATION
  mutagenic call: active; positive
Test System: AMES SALMONELLA TYPHIMURIUM, Strain/Indicator: TA104, Metabolic Activation: NONE, Method: PREINCUBATION
  mutagenic call: active; positive
Test System: AMES SALMONELLA TYPHIMURIUM, Strain/Indicator: TA104, Metabolic Activation: RAT, LIVER, S-9, PHENOBARBITAL AND BETA-NAPHTHOFLAVONE, Method: PREINCUBATION
  mutagenic call: active; positive
Test System: AMES SALMONELLA TYPHIMURIUM, Strain/Indicator: TA2638, Metabolic Activation: NONE, Method: PREINCUBATION
  mutagenic call: active; positive
Test System: AMES SALMONELLA TYPHIMURIUM, Strain/Indicator: TA2659, Metabolic Activation: NONE, Method: PREINCUBATION
  mutagenic call: active; positive
Test System: CHINESE HAMSTER V-79, Strain/Indicator: V-79/6-THIOGUANINE, Metabolic Activation: NONE, Method: PREINCUBATION
  mutagenic call: active; positive
Test System: CHINESE HAMSTER V-79, Strain/Indicator: V-79/6-THIOGUANINE, Metabolic Activation: RAT HEPATOCYTES, Method: PREINCUBATION
  mutagenic call: active; positive

## c1cc2c3oc3cc3ccc4c5oc5cc1c4c32
[1]
  mutagenic call: active; positive

## NCCCCCCCCCCC(=O)O
End Point: IN VITRO CHROMOSOMAL ABERRATIONS, Test System: CHINESE HAMSTER OVARY CELLS, Metabolic Activation: NONE
  mutagenic call: inactive; negative; precipitation occurred at 1000 ug/ml
End Point: IN VITRO CHROMOSOMAL ABERRATIONS, Test System: CHINESE HAMSTER OVARY CELLS, Metabolic Activation: RAT, LIVER, S-9, AROCLOR 1254
  mutagenic call: inactive; negative; precipitation occurred at 1000 ug/ml
Test System: UDS RAT HEPATOCYTES, Strain/Indicator: BROMODEOXYURIDINE INCORP, Metabolic Activation: NONE, Method: FLOW CYTOMETRIC ANALYSIS
  mutagenic call: inactive; negative

## COc1ccc2nc3cc(Cl)ccc3c(NCCCNCCCl)c2c1
Test System: AMES SALMONELLA TYPHIMURIUM, Strain/Indicator: TA97A, Metabolic Activation: NONE, Method: STANDARD PLATE
  mutagenic call: active; positive
Test System: AMES SALMONELLA TYPHIMURIUM, Strain/Indicator: TA98, Metabolic Activation: NONE, Method: STANDARD PLATE
  mutagenic call: active; positive
[1]
  mutagenic call: active; positive
Test System: AMES SALMONELLA TYPHIMURIUM, Strain/Indicator: TA1535, Metabolic Activation: NONE, Method: STANDARD PLATE
  mutagenic call: inactive; negative
Test System: AMES SALMONELLA TYPHIMURIUM, Strain/Indicator: TA1536, Metabolic Activation: NONE, Method: STANDARD PLATE
  mutagenic call: active; positive
Test System: AMES SALMONELLA TYPHIMURIUM, Strain/Indicator: TA1538, Metabolic Activation: NONE, Method: STANDARD PLATE
  mutagenic call: active; positive
Test System: CHINESE HAMSTER V-79, Strain/Indicator: V-79/6-THIOGUANINE, Metabolic Activation: NONE, Method: FLASK ASSAY
  mutagenic call: active; positive
Test System: CHO/HGPRT, Strain/Indicator: CHO-K1-BH4, Metabolic Activation: NONE, Method: STANDARD PLATE
  mutagenic call: active; positive
Test System: UDS RODENT CELLS, Strain/Indicator: THY INCORP (NON-S-PHASE), Metabolic Activation: NONE, Method: LIQUID SCINTILLATION COUNTING
  mutagenic call: active; positive

## CCCCCN(N=O)C(N)=O
Test System: E. COLI B, Strain/Indicator: H/R30R, Metabolic Activation: NONE
  mutagenic call: active; positive
Test System: E. COLI B, Strain/Indicator: HS30R, Metabolic Activation: NONE
  mutagenic call: active; positive
